Assay results: US7459567B2, “Substituted thienyl and furyl acylguanidines and methods of their use as beta-secretase modulators” (Wyeth, priority 2005, dated 2008)

What was measured:
[1] = biological target: human BACE1 (Homo sapiens, UniProt P56817); assay: Fluorescent kinetic assay, BACE1 inhibition (FRET peptide substrate cleavage); format: biochemical; settings: 10 nM BACE1, 25 μM substrate WABC-6, 50 mM Na-Acetate pH 4.5, room temperature
Chain of human BACE1 (P56817 46-501): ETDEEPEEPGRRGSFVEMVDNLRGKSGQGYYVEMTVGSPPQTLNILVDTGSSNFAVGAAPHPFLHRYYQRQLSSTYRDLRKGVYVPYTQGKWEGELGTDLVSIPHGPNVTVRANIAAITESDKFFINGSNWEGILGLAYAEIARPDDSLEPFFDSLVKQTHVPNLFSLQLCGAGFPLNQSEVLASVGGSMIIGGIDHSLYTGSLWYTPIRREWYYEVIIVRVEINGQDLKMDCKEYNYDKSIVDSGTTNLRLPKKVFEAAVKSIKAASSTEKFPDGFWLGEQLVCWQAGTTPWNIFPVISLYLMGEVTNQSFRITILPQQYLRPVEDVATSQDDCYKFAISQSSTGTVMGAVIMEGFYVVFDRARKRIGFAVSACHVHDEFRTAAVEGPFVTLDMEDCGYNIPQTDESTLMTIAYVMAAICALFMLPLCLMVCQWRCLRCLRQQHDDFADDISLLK

melting point | IC50 [1] | Compound
117 to 118 °C | – | CC(=O)c1ccc(Oc2ccc(-c3scc(-c4ccccc4Cl)c3CC(=O)N=C(N)N)cc2)cc1 [Example 9, N″-{[2-[4-(4-Acetylphenoxy)phenyl]-4-(2-chlorophenyl)thien-3-yl]acetyl}guanidine]
98 to 99 °C | – | CCCOc1ccc(-c2scc(-c3ccccc3Cl)c2CC(=O)N=C(N)N)cc1 [Example 1, N″-{[4-(2-Chlorophenyl)-2-(4-propoxyphenyl)thien-3-yl]acetyl}guanidine]
123 to 124 °C | 1730 nM | CCC(=O)c1ccc(Oc2ccc(-c3scc(-c4ccccc4Cl)c3CC(=O)N=C(N)N)cc2)cc1 [Example 10, N″-({4-(2-Chlorophenyl)-2-[4-(4-propionylphenoxy)phenyl]thien-3-yl}acetyl)guanidine]
111 to 113 °C | – | CCCOc1ccc(-c2csc(-c3ccccc3Cl)c2CC(=O)N=C(N)N)cc1 [Example 5, N″-{[2-(2-Chlorophenyl)-4-(4-propoxyphenyl)thien-3-yl]acetyl}guanidine]
71 to 72 °C | – | NC(N)=NC(=O)Cc1c(-c2ccccc2Cl)csc1-c1ccc(OCCc2cn[nH]c2)cc1 [Example 11, 2-(4-(2-Chlorophenyl)-2-{4-[2-(1H-pyrazol-4-yl)ethoxy]phenyl}-thien-3-yl)-N-(diaminomethylene)acetamide]
76 to 78 °C | 1600 nM | NC(N)=NC(=O)Cc1c(-c2ccccc2Cl)csc1-c1ccc(Oc2ccccc2)cc1 [Example 4, N″-{[4-(2-Chlorophenyl)-2-(4-phenoxyphenyl)thien-3-yl]acetyl}guanidine]
116 to 118 °C | 2060 nM | NC(N)=NC(=O)Cc1c(-c2ccccc2)csc1-c1ccc(Oc2ccccc2)cc1 [Example 3, N″-{[2-(4-Phenoxyphenyl)-4-phenylthien-3-yl]acetyl}guanidine]

The next lines start with the compound.

Compound | melting point | IC50 [1]
CCCOc1ccc(-c2csc(-c3ccccc3)c2CC(=O)N=C(N)N)cc1 [Example 8, N″-{[2-Phenyl-4-(4-propoxyphenyl)thien-3-yl]acetyl}guanidine] | 131 to 132 °C | –
CCCOc1ccc(-c2scc(-c3ccccc3Cl)c2CC(=O)NC(=N)NCCCO)cc1C [Example 18, 2-[4-(2-Chlorophenyl)-2-(3-methyl-4-propoxyphenyl)thien-3-yl]-N-[[(3-hydroxypropyl)amino](imino)methyl]acetamide] | 73 to 76 °C | –
CCC(CC)NC(=O)c1ccc(-c2scc(-c3ccccc3Cl)c2CC(=O)NC(=N)NCCCO)cc1 [Example 13, 4-[4-(2-Chlorophenyl)-3-(2-{[[(3-hydroxypropyl)amino](imino)-methyl]amino}-2-oxoethyl)thien-2-yl]-N-(1-ethylpropyl)benzamide] | 109 to 110 °C | –
NC(N)=NC(=O)Cc1c(-c2ccccc2)csc1-c1ccccc1 [Example 2, N″-[(2,4-Diphenylthien-3-yl)acetyl]guanidine] | 204 to 205.5 °C | –
CCCOc1ccc(-c2scc(-c3ccccc3Cl)c2CC(=O)NC(=N)NCCCO)c(C)c1 [Example 19, 2-[4-(2-Chlorophenyl)-2-(2-methyl-4-propoxyphenyl)thien-3-yl]-N-[[(3-hydroxypropyl)amino](imino)methyl]acetamide] | 103 to 105.5 °C | –
N=C(NCCCO)NC(=O)Cc1c(-c2ccccc2Cl)csc1-c1ccc(C(=O)NCC(F)(F)F)cc1 [Example 14, 4-[4-(2-Chlorophenyl)-3-(2-{[[(3-hydroxypropyl)amino](imino)-methyl]amino}-2-oxoethyl)thien-2-yl]-N-(2,2,2-trifluoroethyl)benzamide] | 103 to 105 °C | –
CCCOc1ccc(-c2scc(-c3ccccc3OC(F)(F)F)c2CC(=O)N=C(N)N)cc1 [Example 6, N″-({2-(4-Propoxyphenyl)-4-[2-(trifluoromethoxy)phenyl]thien-3-yl}acetyl)guanidine] | 90 to 92 °C | 1600 nM
CCCNC(=O)c1ccc(-c2scc(-c3ccccc3Cl)c2CC(=O)NC(=N)NCCCO)cc1 [Example 15, 4-[4-(2-Chlorophenyl)-3-(2-{[[(3-hydroxypropyl)amino](imino)-methyl]amino}-2-oxoethyl)thien-2-yl]-N-propylbenzamide] | 116 to 118 °C | –
N=C(NCCCO)NC(=O)Cc1c(-c2ccccc2Cl)csc1-c1ccc(C(=O)NCC2CC2)cc1 [Example 16, 4-[4-(2-Chlorophenyl)-3-(2-{[[(3-hydroxypropyl)amino](imino)-methyl]amino}-2-oxoethyl)thien-2-yl]-N-(cyclopropylmethyl)benzamide] | 100 to 101 °C | –
CCCOc1ccc(-c2scc(-c3ccccc3Cl)c2CC(=O)NC(=N)NCCCO)cc1 [Example 12, 2-[4-(2-Chlorophenyl)-2-(4-propoxyphenyl)thien-3-yl]-N-[[(3-hydroxypropyl)amino](imino)methyl]acetamide] | 49 to 50 °C | –
CCCCNC(=O)c1ccc(-c2scc(-c3ccccc3Cl)c2CC(=O)NC(=N)NCCCO)cc1 [Example 17, N-Butyl-4-[4-(2-chlorophenyl)-3-(2-{[[(3-hydroxypropyl)amino]-(imino)methyl]amino}-2-oxoethyl)thien-2-yl]benzamide] | 92 to 95 °C | –
CCCOc1ccc(-c2scc(-c3ccccc3)c2CC(=O)NC(=N)N)cc1 [Example 7, N-{[4-Phenyl-2-(4-propoxyphenyl)thien-3-yl]acetyl}guanidine] | 94 to 95 °C | –
